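Compound exposure: 48 hours, 5 concentrations, 96-well plates. Abbreviation: GI50, concentration required for 50% inhibition of growth.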 Active and inactive are the calls of the source. Cut-off read from the data, not from the text of the source: active = GI50 up to about 1.1 µM and inactive = higher.
How the values were obtained:
Assay in all cases: NCI anticancer screen, dose series, 48 h
[1] = test system: A498
[2] = test system: DU-145
[3] = test system: SF-268
[4] = test system: OVCAR-4
[5] = test system: HCT-116
[6] = test system: SNB-75
[7] = test system: NCI-H23
[8] = test system: SF-295
[9] = test system: M14
[10] = test system: KM12
[11] = test system: SK-MEL-5
[12] = test system: UACC-62
[13] = test system: SN12C
[14] = test system: ACHN
[15] = test system: SK-MEL-28
[16] = test system: SNB-19
[17] = test system: NCI-H226
[18] = test system: TK-10
[19] = test system: Malme-3M
[20] = test system: MCF7
[21] = test system: SK-OV-3
[22] = test system: BT-549
[23] = test system: SR
[24] = test system: HOP-62
[25] = test system: A549
[26] = test system: LOX IMVI
[27] = test system: U-251
[28] = test system: 786-0
[29] = test system: IGROV-1
[30] = test system: UO-31
[31] = test system: UACC-257
[32] = test system: HCT-15
[33] = test system: RXF 393
[34] = test system: SW-620
[35] = test system: T47D
[36] = test system: MOLT-4
[37] = test system: CAKI-1
[38] = test system: EKVX
[39] = test system: SK-MEL-2
[40] = test system: OVCAR-8
[41] = test system: COLO 205
[42] = test system: HT-29
[43] = test system: RPMI-8226
[44] = test system: PC-3
[45] = test system: K562
[46] = test system: NCI-H460
[47] = test system: Hs-578T
[48] = test system: NCI/ADR-RES
[49] = test system: OVCAR-5
[50] = test system: HCC 2998
[51] = test system: MDA-MB-435
[52] = test system: MDA-MB-231
[53] = test system: OVCAR-3
[54] = test system: HOP-92
[55] = test system: NCI-H522
[56] = test system: MDA-N
[57] = test system: SF-539
[58] = test system: HL-60
[59] = test system: CCRF-CEM

Measured: GI50

COC(=O)c1sc2c(=O)c(C(=O)OC)c(C(=O)OC)sc2c(=O)c1C(=O)OC
inactive: [1] > 100 µM | [2] > 100 µM | [3] > 62.7 µM | [4] > 100 µM | [5] > 100 µM | [6] > 100 µM | [7] > 100 µM | [8] > 100 µM | [9] > 100 µM | [10] > 100 µM | [11] > 76 µM | [12] > 100 µM | [13] > 100 µM | [14] > 100 µM | [15] > 100 µM | [16] > 100 µM | [17] > 100 µM | [18] > 100 µM | [19] 49 µM | [20] > 100 µM | [21] > 100 µM | [22] > 100 µM | [23] 37.8 µM | [24] > 100 µM | [25] > 100 µM | [26] 73.3 µM | [27] > 80.9 µM | [28] > 100 µM | [29] > 67.8 µM | [30] > 100 µM | [31] > 100 µM | [33] > 100 µM | [34] > 100 µM | [35] > 100 µM | [36] 5.85 µM | [37] > 100 µM | [38] > 100 µM | [39] > 85.9 µM | [40] > 100 µM | [41] > 100 µM | [42] > 100 µM | [43] > 100 µM | [44] > 100 µM | [45] 43.2 µM | [46] > 100 µM | [47] > 64.1 µM | [48] > 100 µM | [49] > 100 µM | [50] > 100 µM | [51] > 100 µM | [52] > 100 µM | [53] > 100 µM | [54] > 100 µM | [55] 21.5 µM | [56] > 100 µM | [57] > 100 µM
> 100 µM: [32]

O=C(NCc1cccnc1)NCc1cccnc1
> 100 µM: [32]
inactive: [1] > 100 µM | [2] > 100 µM | [3] > 100 µM | [4] > 100 µM | [5] > 100 µM | [6] > 100 µM | [7] > 100 µM | [8] > 100 µM | [9] > 100 µM | [10] > 100 µM | [11] > 100 µM | [12] > 100 µM | [13] > 100 µM | [14] > 100 µM | [15] > 100 µM | [16] > 100 µM | [17] 58.9 µM | [18] > 100 µM | [19] > 100 µM | [20] > 100 µM | [21] > 100 µM | [22] > 100 µM | [23] > 100 µM | [24] > 100 µM | [25] > 100 µM | [26] > 100 µM | [27] > 100 µM | [28] > 100 µM | [29] > 100 µM | [30] > 100 µM | [31] > 100 µM | [33] > 100 µM | [34] > 100 µM | [35] > 100 µM | [37] > 100 µM | [38] > 100 µM | [39] > 100 µM | [40] > 100 µM | [41] > 100 µM | [58] > 100 µM | [42] > 100 µM | [43] > 100 µM | [44] > 100 µM | [45] > 100 µM | [46] > 100 µM | [47] > 100 µM | [48] > 100 µM | [49] > 100 µM | [50] > 100 µM | [51] > 100 µM | [52] > 100 µM | [53] > 100 µM | [54] > 100 µM | [55] > 100 µM | [56] > 100 µM | [57] > 100 µM

O=C(O)c1[nH]c(=O)[nH]c(=O)c1CN1CCCCC1
inactive: [1] > 100 µM | [2] > 100 µM | [3] > 100 µM | [4] > 100 µM | [5] > 100 µM | [6] > 100 µM | [7] > 100 µM | [8] > 100 µM | [9] > 100 µM | [10] > 100 µM | [11] > 100 µM | [12] > 100 µM | [13] > 100 µM | [14] > 100 µM | [15] > 100 µM | [16] > 100 µM | [17] > 100 µM | [18] > 100 µM | [19] > 100 µM | [20] > 100 µM | [21] > 100 µM | [22] > 100 µM | [23] > 100 µM | [24] > 100 µM | [25] > 100 µM | [26] > 100 µM | [27] > 100 µM | [28] > 100 µM | [29] > 100 µM | [30] > 100 µM | [31] > 100 µM | [33] > 100 µM | [34] > 100 µM | [35] > 100 µM | [37] > 100 µM | [38] > 100 µM | [39] > 100 µM | [40] > 100 µM | [41] > 100 µM | [58] > 100 µM | [42] > 100 µM | [43] > 100 µM | [44] > 100 µM | [45] > 100 µM | [46] > 100 µM | [47] > 100 µM | [48] > 100 µM | [49] > 100 µM | [50] > 100 µM | [51] > 100 µM | [52] > 100 µM | [53] > 100 µM | [54] > 100 µM | [55] > 100 µM | [56] > 100 µM
> 100 µM: [32]
active: [59] 0.0553 µM

O=c1[nH]c(-c2ccccc2)nc2c1sc1nc3ccccc3n12
> 100 µM: [32]
inactive: [1] > 100 µM | [2] > 100 µM | [3] 78.2 µM | [4] > 81.3 µM | [5] > 100 µM | [6] > 63.1 µM | [7] > 100 µM | [8] > 100 µM | [9] > 100 µM | [10] > 92.7 µM | [11] > 100 µM | [12] > 100 µM | [13] > 100 µM | [14] 61.4 µM | [15] > 100 µM | [16] 98.4 µM | [17] > 100 µM | [18] > 100 µM | [19] > 100 µM | [20] > 100 µM | [21] > 100 µM | [22] > 61 µM | [23] > 100 µM | [25] > 100 µM | [26] > 100 µM | [27] > 87.7 µM | [28] > 100 µM | [29] > 100 µM | [30] > 100 µM | [31] > 100 µM | [33] > 100 µM | [34] > 100 µM | [35] > 100 µM | [36] 16.1 µM | [37] > 100 µM | [38] > 100 µM | [39] > 100 µM | [40] > 100 µM | [41] > 100 µM | [58] > 100 µM | [42] > 100 µM | [43] 1.52 µM | [44] > 100 µM | [45] > 100 µM | [46] > 100 µM | [47] 26.7 µM | [48] > 100 µM | [49] > 100 µM | [50] > 100 µM | [51] > 100 µM | [59] > 100 µM | [52] > 100 µM | [53] > 100 µM | [54] > 100 µM | [55] > 100 µM | [56] > 100 µM | [57] > 100 µM
